Test [1] in a line: regioselective reduction of biomimics with catalyst precursor (2) and sodium formate, followed by 1H NMR. As to conditions: disappearance of pyridinium signals vs [(CH3)4N]OTf during first 2 hours; compound (1a) set to 1.0. On the procedure: The relative rates, seen tabulated in FIG. 1C, were determined by observing disappearance of the pyridinium signals versus an internal standard, [(CH3)4N]OTf (tetramethylammonium triflate), during the first 2 hours, where the relative rate of 1-benzylnicotinamide triflate (1) was set to 1.0. The turnover frequencies were calculated by the formation of mmol of product/mmol of catalyst/hour. The total turnover number in 24 hours was ˜95 for all substrates that gave product. The reactions were conducted in presilylated J. Young NMR tubes and were followed by ^1H NMR.
The electronic effect of differently substituted nicotinamide substrates was determined by their relative rates. The relative rates of these compounds were determined by observing the disappearance of the pyridinium signals compared to interval standard, [(CH3)4N]OTf, during the first 2 hours, where the relative rate of compound (1a) was 1.0.
In a typical reaction, a J. Young NMR tube was charged, biomimic substrates (1a)-(1i) (1.0 mol), 2 (1% mol), and HCO2Na (1.1 mol) used as the hydride source and a Schlenk techniques were conducted to deoxygenate the solid mixture. A diluted solvent was added to these solids for compounds (1a)-(1i), the solvent was D2O-THF-d8 (1=1 0.75 mL, deoxygenated), and the NMR tube was placed in a liquid nitrogen bath. The contents were further degassed by two successive freeze-pump-thaw cycles. After thawing out the reaction mixture, the J. Young NMR tube was immediately put in a salted ice-bath and covered with aluminum foil. The reaction was then followed by ^1H NMR spectroscopy at 26° C. temperature, after a speedy thawing out.
The given relative rates and turnover frequencies were determined by decreasing integration of the corresponding pyridinium salts measured against an internal standard, (CH3)4N(OTf), during the first 2 h of the reaction. The ratios of the 1,4- and 1,6-dihydronicotinamide derivatives of compounds (1a), (1b) and (1d)-(1g) were obtained by comparison of the resonance signals with those of authentic samples, where the diagnostic signal is the resonance for —CH2Ph moiety which can be identified unambiguously in the ^1H NMR spectrum.

Test [2] can be described thus: competitive regioselective substrate reduction experiments with rhodium catalyst precursor (2). On the procedure:
In order to establish whether the σ-donating ability or the electron-withdrawing effect of the 3-substituent of the 1-benzylnicotinamide was the important parameter, several competitive substrate reduction experiments were performed.
For this purpose, the compound (1a) 1-benzylnicotinamide, was reduced with rhodium catalyst precursor (2) in the presence of its alternatively substituted derivatives, compounds (1e), substituted with —C(O)—CH3, (1g), substituted with (—CN), (1d), substituted with —C(S)NH2 or (1f), substituted with —C(O)OCH3, and their competitive reduction was determined.

SMILES strings stand for the structures. Counter-ions that a name gives are not always drawn.

On to `NC(=O)c1ccc[n+](Cc2ccccc2)c1` [Compound 1a, 1-Benzylnicotinamide, Triflate Salt], for which the “relative rate of regioselective reduction” value in test [1] is reported as 1.0. For the same compound, in test [2] (competitive reduction of (1a) with (1e)), the “times faster than the —C(O)CH3 analog (1e)” value was 1.1 times. In test [2] (competitive reduction of (1a) with (1g)), the “times faster than the —CN analog (1g)” value stood at 1.3 times.
